Reference: US20230085307A1, “PYRIDAZINONE COMPOUND AND HERBICIDE” (NISSAN CHEMICAL CORPORATION, priority 2019, published 2023)

Assays:
late watergrass = assay: Test Example 2: herbicidal activity, application during weed generation under submerged conditions (Table 17, symbol A); type: in vivo, late watergrass (Echinochloa oryzicola); conditions: AAH 320 g/ha; application during weed generation, submerged conditions
In short: (§1)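 Steps: fill Wagner pots with alluvial soil; add water to give 4 cm depth; sow the species mixed; grow under glass at 25–30° C.; at 1–2 leaves apply water-diluted emulsion formulation to the water surface at a fixed herbicide amount; score after 3 weeks.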

Japanese bulrush = assay: Test Example 2: herbicidal activity, application during weed generation under submerged conditions (Table 17, symbol B); type: in vivo, Japanese bulrush (Schoenoplectus juncoides); conditions: AAH 320 g/ha; application during weed generation, submerged conditions
In short: as §1

oval-leafed pondweed = assay: Test Example 2: herbicidal activity, application during weed generation under submerged conditions (Table 17, symbol C); type: in vivo, oval-leafed pondweed (Monochoria vaginalis); conditions: AAH 320 g/ha; application during weed generation, submerged conditions
In short: as §1

barnyard grass [1] = assay: Test Example 3: herbicidal effect by foliage application, Wagner pot (Table 18, symbol H); type: in vivo, barnyard grass (Echinochloa crus-galli); conditions: 320 g/ha
In short: (§2)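 Plants were sown in alluvial soil held under 0.1–0.5 cm standing water and grown 14 days in a greenhouse at 25–30 °C. An emulsifiable formulation, water-diluted to the set dose, was then sprayed onto the foliage, and effects were scored three weeks later using previously defined criteria.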

Chinese sprangletop = assay: Test Example 3: herbicidal effect by foliage application, Wagner pot (Table 18, symbol D); type: in vivo, chinese sprangletop (Leptochloa chinensis); conditions: 320 g/ha
In short: as §2

rice flat sedge = assay: Test Example 3: herbicidal effect by foliage application, Wagner pot (Table 18, symbol E); type: in vivo, rice flat sedge (Cyperus iria); conditions: 320 g/ha
In short: as §2

southern crabgrass [2] = assay: Test Example 4: herbicidal effect by soil treatment (Table 19, symbol F); type: in vivo, southern crabgrass (Digitaria ciliaris); conditions: 320 g/ha
In short: (§3)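 Herbicidal effect was rated 3 weeks after treatment, using the scoring criteria of an earlier test. The compound, formulated as an emulsion and diluted in water to a set herbicide amount, had been sprayed uniformly on soil over freshly sown seeds. Growth took place in a greenhouse at 25° C. to 30° C.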

green foxtail [3] = assay: Test Example 4: herbicidal effect by soil treatment (Table 19, symbol G); type: in vivo, green foxtail (Setaria viridis); conditions: 320 g/ha
In short: as §3

barnyard grass [4] = assay: Test Example 4: herbicidal effect by soil treatment (Table 19, symbol H); type: in vivo, barnyard grass (Echinochloa crus-galli); conditions: 320 g/ha
In short: as §3

wild oat [5] = assay: Test Example 4: herbicidal effect by soil treatment (Table 19, symbol I); type: in vivo, wild oat (Avena fatua); conditions: 320 g/ha
In short: as §3

blackgrass [6] = assay: Test Example 4: herbicidal effect by soil treatment (Table 19, symbol J); type: in vivo, blackgrass (Alopecurus myosuroides); conditions: 320 g/ha
In short: as §3

Italian ryegrass [7] = assay: Test Example 4: herbicidal effect by soil treatment (Table 19, symbol K); type: in vivo, Italian ryegrass (Lolium multiflorum); conditions: 320 g/ha
In short: as §3

windgrass [8] = assay: Test Example 4: herbicidal effect by soil treatment (Table 19, symbol L); type: in vivo, windgrass (Apera spica-venti); conditions: 320 g/ha
In short: as §3

velvetleaf [9] = assay: Test Example 4: herbicidal effect by soil treatment (Table 19, symbol M); type: in vivo, velvetleaf (Abutilon theophrasti); conditions: 320 g/ha
In short: as §3

redroot pigweed = assay: Test Example 4: herbicidal effect by soil treatment (Table 19, symbol N); type: in vivo, redroot pigweed (Amaranthus retroflexus); conditions: 320 g/ha
In short: as §3

lambsquarters [10] = assay: Test Example 4: herbicidal effect by soil treatment (Table 19, symbol O); type: in vivo, lambsquarters (Chenopodium album); conditions: 320 g/ha
In short: as §3

chickweed = assay: Test Example 4: herbicidal effect by soil treatment (Table 19, symbol P); type: in vivo, common chickweed (Stellaria media); conditions: 320 g/ha
In short: as §3

false cleavers [11] = assay: Test Example 4: herbicidal effect by soil treatment (Table 19, symbol Q); type: in vivo, false cleavers (Galium spurium); conditions: 320 g/ha
In short: as §3

persian speedwell [12] = assay: Test Example 4: herbicidal effect by soil treatment (Table 19, symbol R); type: in vivo, Persian speedwell (Veronica persica); conditions: 320 g/ha
In short: as §3

southern crabgrass [13] = assay: Test Example 5: herbicidal effect by foliage application, plastic box (Table 20, symbol F); type: in vivo, southern crabgrass (Digitaria ciliaris); conditions: foliage application, 320 g/ha, 3 weeks after application
In short: (§4)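 Foliar spray test: emulsion formulation diluted in water to a set application rate, sprayed onto 14-day-old plants raised in diluvial soil at 25° C to 30° C under glass. Both herbicidal effect and crop effect rated visually three weeks later.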

green foxtail [14] = assay: Test Example 5: herbicidal effect by foliage application, plastic box (Table 20, symbol G); type: in vivo, green foxtail (Setaria viridis); conditions: foliage application, 320 g/ha, 3 weeks after application
In short: as §4

barnyard grass [15] = assay: Test Example 5: herbicidal effect by foliage application, plastic box (Table 20, symbol H); type: in vivo, barnyard grass (Echinochloa crus-galli); conditions: foliage application, 320 g/ha, 3 weeks after application
In short: as §4

wild oat [16] = assay: Test Example 5: herbicidal effect by foliage application, plastic box (Table 20, symbol I); type: in vivo, wild oat (Avena fatua); conditions: foliage application, 320 g/ha, 3 weeks after application
In short: as §4

blackgrass [17] = assay: Test Example 5: herbicidal effect by foliage application, plastic box (Table 20, symbol J); type: in vivo, blackgrass (Alopecurus myosuroides); conditions: foliage application, 320 g/ha, 3 weeks after application
In short: as §4

Italian ryegrass [18] = assay: Test Example 5: herbicidal effect by foliage application, plastic box (Table 20, symbol K); type: in vivo, Italian ryegrass (Lolium multiflorum); conditions: foliage application, 320 g/ha, 3 weeks after application
In short: as §4

windgrass [19] = assay: Test Example 5: herbicidal effect by foliage application, plastic box (Table 20, symbol L); type: in vivo, windgrass (Apera spica-venti); conditions: foliage application, 320 g/ha, 3 weeks after application
In short: as §4

velvetleaf [20] = assay: Test Example 5: herbicidal effect by foliage application, plastic box (Table 20, symbol M); type: in vivo, velvetleaf (Abutilon theophrasti); conditions: foliage application, 320 g/ha, 3 weeks after application
In short: as §4

lambsquarters [21] = assay: Test Example 5: herbicidal effect by foliage application, plastic box (Table 20, symbol O); type: in vivo, lambsquarters (Chenopodium album); conditions: foliage application, 320 g/ha, 3 weeks after application
In short: as §4

false cleavers [22] = assay: Test Example 5: herbicidal effect by foliage application, plastic box (Table 20, symbol Q); type: in vivo, false cleavers (Galium spurium); conditions: foliage application, 320 g/ha, 3 weeks after application
In short: as §4

persian speedwell [23] = assay: Test Example 5: herbicidal effect by foliage application, plastic box (Table 20, symbol R); type: in vivo, Persian speedwell (Veronica persica); conditions: foliage application, 320 g/ha, 3 weeks after application
In short: as §4

SMILES: CCCC(=O)Oc1c(C)nn(C)c(=O)c1-c1c(-c2ccc(F)cc2)sc2ccc(F)cc12 [2-002]
- herbicidal effect rating, A: late watergrass (late watergrass): 2 (Herbicidal rate of 20% or more and less than 40%)
- herbicidal effect rating, B: Japanese bulrush (Japanese bulrush): 0 (Herbicidal rate of 5% or less (almost no effect))
- herbicidal effect rating, C: oval-leafed pondweed (oval-leafed pondweed): 3 (Herbicidal rate of 40% or more and less than 70%)
- herbicidal effect on H (barnyard grass), rating 0-5 (barnyard grass [1]): 5 (Herbicidal rate of 90% or more (almost completely withered))
- herbicidal effect on D (Chinese sprangletop), rating 0-5 (Chinese sprangletop): 5 (Herbicidal rate of 90% or more (almost completely withered))
- herbicidal effect on E (rice flat sedge), rating 0-5 (rice flat sedge): 5 (Herbicidal rate of 90% or more (almost completely withered))
- herbicidal effect rating, F: southern crabgrass (southern crabgrass [2]): 5 (Herbicidal rate of 90% or more (almost completely withered))
- herbicidal effect rating, G: green foxtail (green foxtail [3]): 5 (Herbicidal rate of 90% or more (almost completely withered))
- herbicidal effect rating, H: barnyard grass (barnyard grass [4]): 4 (Herbicidal rate of 70% or more and less than 90%)
- herbicidal effect rating, I: wild oat (wild oat [5]): 3 (Herbicidal rate of 40% or more and less than 70%)
- herbicidal effect rating, J: blackgrass (blackgrass [6]): 1 (Herbicidal rate of 5% or more and less than 20%)
- herbicidal effect rating, K: Italian ryegrass (Italian ryegrass [7]): 5 (Herbicidal rate of 90% or more (almost completely withered))
- herbicidal effect rating, L: windgrass (windgrass [8]): 1 (Herbicidal rate of 5% or more and less than 20%)
- herbicidal effect rating, M: velvetleaf (velvetleaf [9]): 5 (Herbicidal rate of 90% or more (almost completely withered))
- herbicidal effect rating, N: redroot pigweed (redroot pigweed): 5 (Herbicidal rate of 90% or more (almost completely withered))
- herbicidal effect rating, O: lambsquarters (lambsquarters [10]): 4 (Herbicidal rate of 70% or more and less than 90%)
- herbicidal effect rating, P: chickweed (chickweed): 3 (Herbicidal rate of 40% or more and less than 70%)
- herbicidal effect rating, Q: false cleavers (false cleavers [11]): 4 (Herbicidal rate of 70% or more and less than 90%)
- herbicidal effect rating, R: persian speedwell (persian speedwell [12]): 5 (Herbicidal rate of 90% or more (almost completely withered))
- effect on southern crabgrass (F) (southern crabgrass [13]): 5 (Herbicidal rate of 90% or more (almost completely withered))
- effect on green foxtail (G) (green foxtail [14]): 5 (Herbicidal rate of 90% or more (almost completely withered))
- effect on barnyard grass (H) (barnyard grass [15]): 5 (Herbicidal rate of 90% or more (almost completely withered))
- effect on wild oat (I) (wild oat [16]): 4 (Herbicidal rate of 70% or more and less than 90%)
- effect on blackgrass (J) (blackgrass [17]): 4 (Herbicidal rate of 70% or more and less than 90%)
- effect on Italian ryegrass (K) (Italian ryegrass [18]): 5 (Herbicidal rate of 90% or more (almost completely withered))
- effect on windgrass (L) (windgrass [19]): 3 (Herbicidal rate of 40% or more and less than 70%)
- effect on velvetleaf (M) (velvetleaf [20]): 5 (Herbicidal rate of 90% or more (almost completely withered))
- effect on lambsquarters (O) (lambsquarters [21]): 5 (Herbicidal rate of 90% or more (almost completely withered))
- effect on false cleavers (Q) (false cleavers [22]): 5 (Herbicidal rate of 90% or more (almost completely withered))
- effect on persian speedwell (R) (persian speedwell [23]): 5 (Herbicidal rate of 90% or more (almost completely withered))
